≈ marks a conversion by molar mass, not a printed value.
Columns and labels:
[1] = tested on: Staphylococcus aureus; test: Inhibitory effect against methicillin resistant Staphylococcus aureus (A 27223), expressed as minimum inhibitory concentration; type: functional
[2] = tested on: Staphylococcus aureus; test: Inhibitory effect against methicillin resistant Staphylococcus aureus (A 27621), expressed as minimum inhibitory concentration; type: functional
[3] = tested on: Staphylococcus aureus; test: Inhibitory effect against methicillin resistant Staphylococcus aureus (A 27218), expressed as minimum inhibitory concentration; type: functional
[4] = In vitro half life in human plasma was determined; type: ADME, cell-free
[5] = tested on: Staphylococcus aureus; test: Inhibitory effect against methicillin susceptible Staphylococcus aureus (A 15090), expressed as minimum inhibitory concentration; type: functional
[6] = tested on: Staphylococcus aureus; test: Inhibitory effect against methicillin resistant Staphylococcus aureus (A 27217), expressed as minimum inhibitory concentration; type: functional
[7] = tested on: Mus musculus; test: In vivo protective dose against MRSA (strain A 27223); type: functional; settings: read-out: PD50
[8] = tested on: Staphylococcus aureus; test: Minimum inhibitory concentration against MRSA (strain A 27223)

Work on CN(C)c1ccc(C(=O)OCC2=C(C(=O)O)N3C(=O)[C@@H](NC(=O)CSc4cc(Cl)ccc4Cl)C3SC2)cc1 (stereo not given in full) yielded an MIC [1] of 0.25 µg/mL (≈ 0.419 µM), an MIC [2] of 0.25 µg/mL (≈ 0.419 µM) and an MIC [3] of 0.125 µg/mL (≈ 0.21 µM). It also gave a half-life [4] of over 10 h, an MIC [5] of 0.06 µg/mL (≈ 0.101 µM) and an MIC [6] of 0.125 µg/mL (≈ 0.21 µM).
With O=C(CSc1cc(Cl)ccc1Cl)N[C@@H]1C(=O)N2C(C(=O)O)=C(COC(=O)c3cccnc3)CSC12 (stereo not given in full) the MIC [1] was 4 µg/mL (≈ 7.21 µM), the MIC [2] was 4 µg/mL (≈ 7.21 µM) and the MIC [3] was 2 µg/mL (≈ 3.61 µM). For the same compound, the MIC [5] was 0.125 µg/mL (≈ 0.225 µM) and the MIC [6] was 2 µg/mL (≈ 3.61 µM).
O=C(CSc1cc(Cl)ccc1Cl)N[C@@H]1C(=O)N2C(C(=O)O)=C(COC(=O)c3ccc([N+](=O)[O-])cc3)CSC12 (stereo not given in full) gave an MIC [1] of 2 µg/mL (≈ 3.34 µM), an MIC [2] of 2 µg/mL (≈ 3.34 µM) and an MIC [3] of 0.25 µg/mL (≈ 0.418 µM). The MIC [5] was 0.06 µg/mL (≈ 0.1 µM) and the MIC [6] was 0.25 µg/mL (≈ 0.418 µM).
Work on CN[C@H](CC(C)C)C(=O)N[C@H]1C(=O)N[C@@H](CC(N)=O)C(=O)N[C@H]2C(=O)N[C@H]3C(=O)N[C@H](C(=O)N[C@H](C(=O)O)c4cc(O)cc(O)c4-c4cc3ccc4O)[C@H](O)c3ccc(c(Cl)c3)Oc3cc2cc(c3O[C@@H]2O[C@H](CO)[C@@H](O)[C@H](O)[C@H]2O[C@H]2C[C@](C)(N)[C@H](O)[C@H](C)O2)Oc2ccc(cc2Cl)[C@H]1O [VANCOMYCIN] yielded an MIC [1] of 0.25 µg/mL (≈ 0.173 µM), an MIC [2] of 0.25 µg/mL (≈ 0.173 µM) and an MIC [3] of 0.25 µg/mL (≈ 0.173 µM). For the same compound, the MIC [5] was 0.25 µg/mL (≈ 0.173 µM) and the MIC [6] was 0.25 µg/mL (≈ 0.173 µM).
O=C(CSc1cc(Cl)ccc1Cl)N[C@@H]1C(=O)N2C(C(=O)O)=C(COC(=O)c3ccc(O)cc3)CSC12 (stereo not given in full) showed an MIC [1] of 0.25 µg/mL (≈ 0.439 µM), an MIC [2] of 0.5 µg/mL (≈ 0.878 µM) and an MIC [3] of 0.06 µg/mL (≈ 0.105 µM). The MIC [5] was 0.007 µg/mL (≈ 0.0123 µM) and the MIC [6] was 0.06 µg/mL (≈ 0.105 µM).
N#Cc1ccc(C(=O)OCC2=C(C(=O)O)N3C(=O)[C@@H](NC(=O)CSc4cc(Cl)ccc4Cl)C3SC2)cc1 (stereo not given in full) showed an MIC [1] of 1 µg/mL (≈ 1.73 µM), an MIC [2] of 0.5 µg/mL (≈ 0.864 µM) and an MIC [3] of 0.125 µg/mL (≈ 0.216 µM). For the same compound, the MIC [5] was 0.03 µg/mL (≈ 0.0519 µM) and the MIC [6] was 0.125 µg/mL (≈ 0.216 µM).
In the case of C[n+]1ccc(C(=O)OCC2=C(C(=O)[O-])N3C(=O)[C@@H](NC(=O)CSc4cc(Cl)ccc4Cl)C3SC2)cc1 (stereo not given in full), the MIC [1] is reported as 32 µg/mL (≈ 56.3 µM), the MIC [2] is reported as 32 µg/mL (≈ 56.3 µM) and the MIC [3] is reported as 2 µg/mL (≈ 3.52 µM). For the same compound, the MIC [5] was 0.125 µg/mL (≈ 0.22 µM) and the MIC [6] was 8 µg/mL (≈ 14.1 µM).
COc1ccc(C(=O)OCC2=C(C(=O)O)N3C(=O)[C@@H](NC(=O)CSc4cc(Cl)ccc4Cl)C3SC2)cc1 (stereo not given in full) showed an MIC [1] of 0.5 µg/mL (≈ 0.857 µM), an MIC [2] of 0.5 µg/mL (≈ 0.857 µM) and an MIC [3] of 0.125 µg/mL (≈ 0.214 µM). For the same compound, the MIC [5] was 0.06 µg/mL (≈ 0.103 µM) and the MIC [6] was 0.06 µg/mL (≈ 0.103 µM).
With C[n+]1cccc(C(=O)OCC2=C(C(=O)[O-])N3C(=O)[C@@H](NC(=O)CSc4cc(Cl)ccc4Cl)C3SC2)c1 (stereo not given in full) the MIC [1] was 64 µg/mL (≈ 113 µM), the MIC [2] was 64 µg/mL (≈ 113 µM) and the MIC [3] was 32 µg/mL (≈ 56.3 µM). The MIC [5] was 0.5 µg/mL (≈ 0.88 µM) and the MIC [6] was 64 µg/mL (≈ 113 µM).
With O=C(CSc1cc(Cl)ccc1Cl)N[C@@H]1C(=O)N2C(C(=O)O)=C(COC(=O)c3ccncc3)CSC12 (stereo not given in full) the MIC [1] was 8 µg/mL (≈ 14.4 µM), the MIC [2] was 4 µg/mL (≈ 7.21 µM) and the MIC [3] was 0.5 µg/mL (≈ 0.902 µM). The MIC [5] was 0.06 µg/mL (≈ 0.108 µM) and the MIC [6] was 1 µg/mL (≈ 1.8 µM).
For CC(=O)Oc1ccc(C(=O)OCC2=C(C(=O)O)N3C(=O)[C@@H](NC(=O)CSc4cc(Cl)ccc4Cl)C3SC2)cc1 (stereo not given in full), the MIC [1] was 0.125 µg/mL (≈ 0.204 µM), the MIC [2] was 0.125 µg/mL (≈ 0.204 µM) and the MIC [3] was 0.06 µg/mL (≈ 0.0981 µM). The MIC [5] was 0.007 µg/mL (≈ 0.0114 µM) and the MIC [6] was 0.06 µg/mL (≈ 0.0981 µM).
For Cc1ccc(C(=O)OCC2=C(C(=O)O)N3C(=O)[C@@H](NC(=O)CSc4cc(Cl)ccc4Cl)C3SC2)cc1 (stereo not given in full), the MIC [1] was 0.5 µg/mL (≈ 0.881 µM), the MIC [2] was 0.25 µg/mL (≈ 0.441 µM) and the MIC [3] was 0.06 µg/mL (≈ 0.106 µM). For the same compound, the MIC [5] was 0.125 µg/mL (≈ 0.22 µM) and the MIC [6] was 0.5 µg/mL (≈ 0.881 µM).
O=C(CSc1cc(Cl)ccc1Cl)N[C@@H]1C(=O)N2C(C(=O)O)=C(COC(=O)c3ccccc3)CSC12 (stereo not given in full) showed an MIC [1] of 1 µg/mL (≈ 1.81 µM), an MIC [2] of 1 µg/mL (≈ 1.81 µM) and an MIC [3] of 0.5 µg/mL (≈ 0.903 µM). For the same compound, the half-life [4] was over 10 h, the MIC [5] was 0.06 µg/mL (≈ 0.108 µM) and the MIC [6] was 1 µg/mL (≈ 1.81 µM).
Compound CC(=O)Nc1ccc(C(=O)OCC2=C(C(=O)O)N3C(=O)[C@@H](NC(=O)CSc4cc(Cl)ccc4Cl)C3SC2)cc1 (stereo not given in full) has an MIC [1] of 1 µg/mL (≈ 1.64 µM), an MIC [2] of 1 µg/mL (≈ 1.64 µM) and an MIC [3] of 0.5 µg/mL (≈ 0.819 µM). The MIC [5] was 0.06 µg/mL (≈ 0.0983 µM) and the MIC [6] was 0.5 µg/mL (≈ 0.819 µM).
In the case of CC(=O)OCC1=C(C(=O)O)N2C(=O)[C@@H](NC(=O)CSc3cc(Cl)ccc3Cl)C2SC1 (stereo not given in full), the ED50 [7] is reported as 2 mg/kg, the MIC [8] is reported as 2 µg/mL (≈ 4.07 µM) and the half-life [4] is reported as about 4.17 h.

Reference: ChEMBL document CHEMBL1149933, “Synthesis and structure-activity relationship of C-3 benzoyloxymethyl cephalosporins exhibiting anti-MRSA activities” (Bioorg Med Chem Lett, 1997)
